The text below walks through data of article PMC7115494 (European Journal of Medicinal Chemistry, 2012).

As usually defined, the EC50 is the midpoint of the concentration-response curve.

In series [1] the test system is Vaccinia virus Lederle strain. The series can be described thus: microbe, parasite or virus in culture. In kind it is cell-based.
A further series concerns HEL cells. Briefly: Cytotoxicity in HEL cells: cell morphology. Particulars: microscopically detectable alteration of cell morphology. In kind it is cell-based, human.
The next series relates to VZV TK+ strain Oka. The series can be described thus: microbe, parasite or virus in culture. The conditions noted are these: Human alphaherpesvirus 3, Fibroblast, read-out: EC50 VZV TK+ strain Oka. In kind it is cell-based, varicella-zoster virus.
The subject of the next series is VZV TK- strain YS/R. In kind it is cell-based, varicella-zoster virus. Particulars: HEL fibroblasts.
In another series the test system is HSV. Briefly: Antiviral activity against HSV, strains summarised in text. In kind it is cell-based, herpes simplex virus. Particulars: for EC50: read-out: EC50 HSV, range over strains.
The next series has as its system Feline herpesvirus. The series can be described thus: Antiviral activity against feline herpesvirus in CRFK cells. In kind it is cell-based.
For another series, the system named is HCMV. Briefly: Antiviral activity against HCMV, strains summarised in text. In kind it is cell-based, human cytomegalovirus. The conditions noted are these: for EC50: Human betaherpesvirus 5, read-out: EC50 HCMV, range over strains.
A further series relates to VZV. The series can be described thus: Antiviral activity against VZV, strains summarised in text. In kind it is cell-based, varicella-zoster virus. The conditions noted are these: for EC50: Human alphaherpesvirus 3, read-out: EC50 VZV, range over strains.
The subject of series [2] is herpesviruses and poxviruses. Particulars: for Activity against herpesviruses and poxviruses: in vitro.
Series [3] relates to herpesviruses and poxviruses. The conditions noted are these: EC50 in the μM range; cited from earlier work.
In another series the test system is VZV TK+ strain YS. In kind it is cell-based, varicella-zoster virus. Particulars: HEL fibroblasts.

On to `O=c1[nH]c(=O)n([C@H]2C[C@H](O)[C@@H](CO)O2)cc1/C=C/Br` [Brivudin, reference compound], for which the EC50 in [1] (Orthopoxvirus vaccinia, Fibroblast, read-out: EC50 Vaccinia virus Lederle) was 15 ± 17 µM; with VZV TK+ strain Oka it was 10 ± 10 nM. Also, the “Cytotoxicity in HEL cells, cell morphology, MCC (minimum cytotoxic concentration)” value in the series on HEL cells was over 300 μM.
Regarding `CCCCCCCCCCCCCCCCOCCCOP(=O)(CO[C@H](CO)Cn1cnc2c(=O)[nH]c(N)nc21)OCCCOCCCCCCCCCCCCCCCC` [Compound 14, Bis 3-(hexadecyloxypropyl) ester of 9-(S)-[3-hydroxy-2-(phosphonomethoxy)propyl]guanine], the “Fold difference of EC50 versus parent compound (S)-HPMPG, VACV” value in [1] was 41 fold. Further, the “Selectivity index (ratio CC50 to EC50) VZV YS/R” value in the series with VZV TK- strain YS/R is on record as over 57. Moreover, the “Fold difference of EC50 versus parent compound (S)-HPMPG, HSV” value with HSV (printed as lower than parent) was 15- to 40 fold. Further, in the series with Feline herpesvirus (printed as lower than parent), the “Fold difference of EC50 versus parent compound (S)-HPMPG, feline herpesvirus” value is listed as 157 fold. In addition, in the series on HEL cells, the “Cytotoxicity in HEL cells, cell morphology, MCC (minimum cytotoxic concentration)” value is at least 22.6 μM. The “Fold difference of EC50 versus parent compound (S)-HPMPG, HCMV” value with HCMV (printed as lower than parent) was 7 fold. Moreover, the “Fold difference of EC50 versus parent compound (S)-HPMPG, VZV” value in the series with VZV (printed as lower than parent) amounted to 7 fold.
Regarding `Nc1nc2c(ncn2COCCO)c(=O)[nH]1` [Acyclovir, reference compound], the “Cytotoxicity in HEL cells, cell morphology, MCC (minimum cytotoxic concentration)” value with HEL cells is listed as over 444 μM.
As for `Nc1nc(O)c2ncn(COC(CO)CO)c2n1` [Ganciclovir, reference compound], in the series on HEL cells, the “Cytotoxicity in HEL cells, cell morphology, MCC (minimum cytotoxic concentration)” value is over 394 μM.
For `CCCCCCCCCCCCCCCCOCCCOP(=O)(CCOCCn1cnc2c(=O)[nH]cnc21)OCCCOCCCCCCCCCCCCCCCC` [Compound 3, Bis 3-(hexadecyloxypropyl) ester of 9-[2-(phosphonomethoxy)ethyl]hypoxanthine], in the series with HEL cells, the “Cytotoxicity in HEL cells, cell morphology, MCC (minimum cytotoxic concentration)” value was at least 117 μM. For the same compound, the “Activity against herpesviruses and poxviruses” value in series [2] was “inactive”.
Regarding `CCCCCCCCCCCCCCCCOCCCOP(=O)(CO[C@H](CO)Cn1cnc2c(=O)[nH]cnc21)OCCCOCCCCCCCCCCCCCCCC` [Compound 13, Bis 3-(hexadecyloxypropyl) ester of 9-(S)-[3-hydroxy-2-(phosphonomethoxy)propyl]hypoxanthine], the “Cytotoxicity in HEL cells, cell morphology, MCC (minimum cytotoxic concentration)” value with HEL cells was at least 23 μM. Moreover, the “Activity against herpesviruses and poxviruses” value in series [2] was “totally inactive”.
Take `Nc1nc2c(ncn2C[C@@H](CO)OCP(=O)(O)O)c(=O)[nH]1` [(S)-HPMPG, 9-(S)-[3-hydroxy-2-(phosphonomethoxy)propyl]guanine, reference compound]: in series [3], the “Reported activity against HSV-1, HSV-2, VZV, CMV and vaccinia virus” value is listed as “active”. For the same compound, in the series with HEL cells, the “Cytotoxicity in HEL cells, cell morphology, MCC (minimum cytotoxic concentration)” value is reported as over 100 μM.
For the compound `CCCCCCCCCCCCCCCCOCCCOP(=O)(O)CO[C@H](CO)Cn1cnc2c(=O)[nH]c(N)nc21` [Compound 16, 3-(Hexadecyloxypropyl) ester of 9-(S)-[3-hydroxy-2-(phosphonomethoxy)propyl]guanine], the EC50 in the series with HSV was in the range of 7 to 90 nM; in the series with HCMV, 2 to 7 nM; in the series with VZV, 1 to 2.5 nM. In addition, the “Activity against feline herpesvirus” value in the series with Feline herpesvirus (CRFK cells) is “inactive”. The “Cytotoxicity in HEL cells, cell morphology, MCC (minimum cytotoxic concentration)” value in the series on HEL cells is at least 1.3 μM. In addition, in [2] (across viruses), the “SIs fold lower compared to compound 18” value was 2- to 66 fold.
Take `Nc1nc2c(ncn2C[C@H]2COP(=O)(O)CO2)c(=O)[nH]1` [(S)-cHPMPG, reference compound]: the “Cytotoxicity in HEL cells, cell morphology, MCC (minimum cytotoxic concentration)” value in the series with HEL cells was over 100 μM.
Regarding `CCCCCCCCCCCCCCCCOCCCOP(=O)(O)CO[C@H](CO)Cn1cnc2c(=O)[nH]cnc21` [Compound 15, 3-(Hexadecyloxypropyl) ester of 9-(S)-[3-hydroxy-2-(phosphonomethoxy)propyl]hypoxanthine], the “Cytotoxicity in HEL cells, cell morphology, MCC (minimum cytotoxic concentration)” value in the series with HEL cells was at least 34 μM. For the same compound, the “Activity against herpesviruses and poxviruses” value in series [2] is “totally inactive”.
`Nc1ccn(C[C@@H](CO)OCP(=O)(O)O)c(=O)n1.O.O` [Cidofovir, reference compound]: the “Cytotoxicity in HEL cells, cell morphology, MCC (minimum cytotoxic concentration)” value in the series on HEL cells was over 317 μM.
Take `CCCCCCCCCCCCCCCCOCCCOP1(=O)CO[C@@H](Cn2cnc3c(=O)[nH]c(N)nc32)CO1` (stereo partly drawn) [Compound 18, 3-(Hexadecyloxypropyl) ester of 9-{[(5S)-2-hydroxy-2-oxido-1,4,2-dioxaphosphinan-5-yl]methyl}guanine]: the “Selectivity index (ratio CC50 to EC50) VZV YS” value in the series on VZV TK+ strain YS is on record as 19,000. In addition, the “Selectivity index HSV, range over strains” value with HSV (ratio CC50 to EC50) is 211–559. The EC50 in the series with HSV was 7 to 90 nM; in the series on HCMV, 2 to 7 nM; in the series with VZV, 1 to 2.5 nM. Moreover, the “Cytotoxicity in HEL cells, cell morphology, MCC (minimum cytotoxic concentration)” value with HEL cells is recorded as at least 171.3 μM. In the series with HCMV (ratio CC50 to EC50), the “Selectivity index HCMV, range over strains” value is recorded as 3800–9500. In addition, in the series with VZV (ratio CC50 to EC50), the “Selectivity index VZV, range over strains” value is reported as 2700–19,000.
In the case of `CCCCCCCCCCCCCCCCOCCCOP1(=O)CO[C@@H](Cn2cnc3c(=O)[nH]cnc32)CO1` (stereo partly drawn) [Compound 17, 3-(Hexadecyloxypropyl) ester of 9-{[(5S)-2-hydroxy-2-oxido-1,4,2-dioxaphosphinan-5-yl]methyl}hypoxanthine], in the series with HEL cells, the “Cytotoxicity in HEL cells, cell morphology, MCC (minimum cytotoxic concentration)” value is reported as at least 7 μM. Further, the “Activity against herpesviruses and poxviruses” value in series [2] was “totally inactive”.
